According to paper PMC11531508 (Scientific Reports, 2024):

What follows are compounds tested against AChE (Electrophorus electricus) (Electrophorus electricus, UniProt O42275) (assay: In vitro acetylcholinesterase inhibition assay).
Chain of AChE (Electrophorus electricus) (O42275 24-633): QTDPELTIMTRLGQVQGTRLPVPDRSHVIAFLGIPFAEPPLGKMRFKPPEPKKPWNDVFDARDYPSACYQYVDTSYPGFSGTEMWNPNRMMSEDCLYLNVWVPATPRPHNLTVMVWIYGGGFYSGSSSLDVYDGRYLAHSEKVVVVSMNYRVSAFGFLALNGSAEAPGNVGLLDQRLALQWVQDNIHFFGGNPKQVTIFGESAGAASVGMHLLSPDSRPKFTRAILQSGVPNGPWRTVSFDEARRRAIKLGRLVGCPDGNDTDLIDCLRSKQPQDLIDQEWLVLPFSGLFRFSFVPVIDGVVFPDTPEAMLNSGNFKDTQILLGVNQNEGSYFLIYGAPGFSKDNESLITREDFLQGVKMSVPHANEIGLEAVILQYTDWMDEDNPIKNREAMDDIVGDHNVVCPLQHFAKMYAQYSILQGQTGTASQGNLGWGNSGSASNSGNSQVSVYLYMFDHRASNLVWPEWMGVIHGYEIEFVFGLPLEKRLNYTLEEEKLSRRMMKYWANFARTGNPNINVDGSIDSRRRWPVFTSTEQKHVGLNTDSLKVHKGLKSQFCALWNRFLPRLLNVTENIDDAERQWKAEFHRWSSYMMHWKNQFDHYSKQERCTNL
Type: biochemical
O=c1cc(OCCCCOc2ccc(-c3nc4ccccc4s3)cc2)c2ccccc2o1 [Compound 3a, 4-(4-(4-(Benzo[d]thiazol-2-yl)phenoxy)butoxy)-2H-chromen-2-one] was tested, and the IC50 was 4.23 ± 0.11 µM.
COc1cc(-c2nc3ccccc3s2)ccc1OCCCCOc1cc(=O)oc2ccccc12 [Compound 3b, 4-(4-(4-(Benzo[d]thiazol-2-yl)-2-methoxyphenoxy)butoxy)-2H-chromen-2-one] gave an IC50 of 16.5 ± 0.23 µM.
In the case of CCOc1cc(-c2nc3ccccc3s2)ccc1OCCCCOc1cc(=O)oc2ccccc12 [Compound 3c, 4-(4-(4-(Benzo[d]thiazol-2-yl)-2-ethoxyphenoxy)butoxy)-2H-chromen-2-one], the IC50 is reported as 15.8 ± 0.18 µM.
Work on COc1cc(-c2nc3ccccc3s2)cc(OC)c1OCCCCOc1cc(=O)oc2ccccc12 [Compound 3d, 4-(4-(4-(Benzo[d]thiazol-2-yl)-2,6-dimethoxyphenoxy)butoxy)-2H-chromen-2-one] yielded an IC50 of 6.8 ± 0.1 µM.
For COc1cc(OCCCCOc2cc(=O)oc3ccccc23)ccc1-c1nc2ccccc2s1 [Compound 3e, 4-(4-(4-(Benzo[d]thiazol-2-yl)-3-methoxyphenoxy)butoxy)-2H-chromen-2-one], the IC50 was 18.7 ± 0.28 µM.
O=c1cc(OCCCCCOc2ccc(-c3nc4ccccc4s3)cc2)c2ccccc2o1 [Compound 3f, 4-((5-(4-(Benzo[d]thiazol-2-yl)phenoxy)pentyl)oxy)-2H-chromen-2-one] gave an IC50 of 8.5 ± 0.18 µM.
Compound COc1cc(-c2nc3ccccc3s2)ccc1OCCCCCOc1cc(=O)oc2ccccc12 [Compound 3g, 4-((5-(4-(Benzo[d]thiazol-2-yl)-2-methoxyphenoxy)pentyl)oxy)-2H-chromen-2-one] has an IC50 of 6.8 ± 0.13 µM.
CCOc1cc(-c2nc3ccccc3s2)ccc1OCCCCCOc1cc(=O)oc2ccccc12 [Compound 3h, 4-((5-(4-(Benzo[d]thiazol-2-yl)-2-ethoxyphenoxy)pentyl)oxy)-2H-chromen-2-one] was tested, and the IC50 was 6.5 ± 0.12 µM.
Work on COc1cc(-c2nc3ccccc3s2)cc(OC)c1OCCCCCOc1cc(=O)oc2ccccc12 [Compound 3i, 4-((5-(4-(Benzo[d]thiazol-2-yl)-2,6-dimethoxyphenoxy)pentyl)oxy)-2H-chromen-2-one] yielded an IC50 of 2.7 ± 0.1 µM.
COc1cc(OCCCCCOc2cc(=O)oc3ccccc23)ccc1-c1nc2ccccc2s1 [Compound 3j, 4-((5-(4-(Benzo[d]thiazol-2-yl)-3-methoxyphenoxy)pentyl)oxy)-2H-chromen-2-one] was tested, and the IC50 was 7.5 ± 0.16 µM.
In the case of O=c1cc(OCCCCCCOc2ccc(-c3nc4ccccc4s3)cc2)c2ccccc2o1 [Compound 3k, 4-((6-(4-(Benzo[d]thiazol-2-yl)phenoxy)hexyl)oxy)-2H-chromen-2-one], the IC50 is reported as 35.8 ± 0.3 µM.
COc1cc(-c2nc3ccccc3s2)ccc1OCCCCCCOc1cc(=O)oc2ccccc12 [Compound 3l, 4-((6-(4-(Benzo[d]thiazol-2-yl)-2-methoxyphenoxy)hexyl)oxy)-2H-chromen-2-one] showed an IC50 of 33.2 ± 0.28 µM.
In the case of CCOc1cc(-c2nc3ccccc3s2)ccc1OCCCCCCOc1cc(=O)oc2ccccc12 [Compound 3m, 4-((6-(4-(Benzo[d]thiazol-2-yl)-2-ethoxyphenoxy)hexyl)oxy)-2H-chromen-2-one], the IC50 is reported as 27.9 ± 0.2 µM.
COc1cc(-c2nc3ccccc3s2)cc(OC)c1OCCCCCCOc1cc(=O)oc2ccccc12 [Compound 3n, 4-((6-(4-(Benzo[d]thiazol-2-yl)-2,6-dimethoxyphenoxy)hexyl)oxy)-2H-chromen-2-one] was tested, and the IC50 was 12.1 ± 0.19 µM.
In the case of COc1cc(OCCCCCCOc2cc(=O)oc3ccccc23)ccc1-c1nc2ccccc2s1 [Compound 3o, 4-((6-(4-(Benzo[d]thiazol-2-yl)-3-methoxyphenoxy)hexyl)oxy)-2H-chromen-2-one], the IC50 is reported as 30.7 ± 0.23 µM.
